Data on 10 compounds can be found in patent publication US20100185419A1, “ALGORITHM FOR DESIGNING IRREVERSIBLE INHIBITORS” (Avila Therapeutics, Inc., priority 2008, published 2010).

One test deals with T1, Btk (Homo sapiens, UniProt Q06187).
T1 construct: purchased Invitrogen
As to the kind of experiment: Omnia assay for potency against Btk. To be noted: biochemical assay; read-out: IC50 Btk kinase. The procedure:
The protocol below describes continuous-read kinase assays to measure inherent potency of compounds against active forms of Btk enzyme. The mechanics of the assay platform are best described by the vendor (Invitrogen, Carlsbad, Calif.) on the world wide web at invitrogen.com/site/us/en/home/Products-and-Services/Applications/Drug-Discovery/Target-and-Lead-Identification-and-Validation/KinaseBiology/KB-Misc/Biochemical-Assays/Omnia-Kinase-Assays.html. Briefly, 10× stocks of 5 nM Btk from Invitrogen, 1.13×40 μM ATP (AS001A) and 10 μM (ATP KMapp ˜[…]) Tyr-Sox conjugated peptide substrates (KCZ 1001) were prepared in 1× kinase reaction buffer consisting of 20 mM Tris, pH 7.5, 5 mM MgCl2, 1 mM EGTA, 5 mM β-glycerophosphate, 5% glycerol (10× stock, KBOO2A) and 0.2 mM DTT (DS001A).

For test [1], the target named is HCV NS3/4A 1b protease D168A (Hepatitis C virus genotype 1b, UniProt P26662, D1194A). As to the kind of experiment: HCV Protease FRET Assay for mutated NS3/4A 1b enzyme (IC50). In kind it is biochemical. As to conditions: 30 min pre-incubation. An excerpt: 279, No. 17, pp 17508-17514.
Test [2] has as its target HCV NS3/4A 1b protease WT (Hepatitis C virus genotype 1b, UniProt P26662). As to the kind of experiment: HCV Protease FRET Assay for wild type NS3/4A 1b enzyme (IC50). In kind it is biochemical. To be noted: 30 min pre-incubation.
Another test relates to HCV RNA replicon. As to the kind of experiment: Replicon assay (luciferase, ET Huh7 cell line). As to conditions: Hepatitis C virus, Huh-7, 72 h, read-out: EC50 replicon assay. In general terms: Replicon systems follow genome replication, usually without infectious particles.
The next test concerns the target HCV NS3/4A 1b protease (Hepatitis C virus genotype 1b, UniProt P26662). Briefly: biochemical.
Another test deals with CSF1R (FMS) (Homo sapiens, UniProt P07333). As to the kind of experiment: CSF1R inhibition assay (Z'-LYTE). The test is classed as biochemical. As to conditions: read-out: % inhibition of CSF1R. The procedure: Compounds were assayed as inhibitors of […] in a manner substantially similar to the method described by Invitrogen Corp (Invitrogen Corporation, 1600 Faraday Avenue, Carlsbad, Calif., CA) using the […] biochemical assay procedure or similar biochemical assay. The 2×CSF1R (FMS)/[…] Peptide Mixture was prepared in 50 mM HEPES pH 7.5, 0.01% BRIJ-35, 10 mM MgCl2, 1 mM EGTA. The final […] Kinase Reaction consisted of 0.2-67.3 ng CSF1R (FMS) and 2 μM […] Peptide in 50 mM HEPES pH 7.5, 0.01% BRIJ-35, 10 mM MgCl2, 1 mM EGTA. After the 1 hour Kinase Reaction incubation, 5 μL of a 1:128 dilution of Development Reagent B was added.

Test [3] addresses T2, c-KIT (Homo sapiens, UniProt P10721). Briefly: cKIT inhibition assay (electrophoretic mobility shift). Further details: purchased Millipore 14-559. The test is classed as biochemical. How it is done:
The reaction was started by adding the ATP and incubating for 1 hour at room temperature. […] Phosphorylated and unphosphorylated substrate was separated by charge using electrophoretic mobility shift.

A further test addresses CSF1R (Homo sapiens, UniProt P07333). As to the kind of experiment: CSF1R mass spectral analysis of tryptic digest. To be noted: 3 hrs at 10× excess, tryptic digest MALDI. In kind it is binding. How it is done: Iodoacetamide was used as the alkylating agent after compound incubation. For tryptic digests, a 2 μl aliquot (0.09 μg/μl) was diluted with 10 μl of 0.1% TFA prior to micro C18 Zip Tipping directly onto the MALDI target using alpha cyano-4-hydroxy cinnamic acid as the matrix (5 mg/ml in 0.1% TFA:Acetonitrile 50:50).
For tryptic digests, the instrument was set in Reflectron mode with a pulsed extraction setting of 1800. Calibration was done using the Laser Biolabs Pep Mix standard (1046.54, 1296.69, 1672.92, 2093.09, 2465.20). For CID/PSD analysis the peptide was selected using cursors to set ion gate timing and fragmentation occurred at a laser power about 20% higher and He was used as the collision gas for CID. Calibration for fragments was done using the P14R fragmentation calibration for the Curved field Reflectron. Database searching of the tryptic digest of CSF identified it correctly. […] PSD analysis of this peptide signal (1160.50) gave enough fragments to allow for a database MS/MS ion search which verified the sequence of this peptide.

The target of the next test is T3, cKIT in GIST882 cells (Homo sapiens, UniProt P10721, K642E).
T3 construct: endogenous in cells; host or cells: GIST882 cells
Briefly: GIST882 cellular assay with washout (western blot). The test is classed as cell-based. To be noted: for cKIT autophosphorylation / downstream signaling of ERK: 1 micromolar. How it is done: GIST882 cells were seeded in a 6 well plate at a density of 8×10^5 cells/well in complete media. The next day cells were treated with 1 uM compound diluted in complete media for 90 minutes. After 90 minutes, the media was removed and cells were washed with compound-free media. Cells were washed every 2 hours and resuspended in fresh compound-free media.
A general note: A western blot detects proteins with antibodies after separation by electrophoresis.

Test [4] deals with T2, c-KIT. Briefly: c-KIT mass spectral analysis of tryptic digest. The test is classed as binding. As to conditions: 3 hours at 10× excess, tryptic digest MALDI-TOF. How it is done: Iodoacetamide was used as the alkylating agent after compound incubation. For tryptic digests a 5 μl aliquot (14 pmols) was diluted with 10 ul of 0.1% TFA prior to micro C18 Zip Tipping directly onto the MALDI target using alpha cyano-4-hydroxy cinnamic acid as the matrix (5 mg/ml in 0.1% TFA:acetonitrile 50:50).
The tryptic digest was analyzed by mass spectrometer (MALDI-TOF).
Iodoacetamide was used as the alkylating agent after compound incubation. […] For tryptic digests a 2 μl aliquot (3.3 pmols) was diluted with 10 μl of 0.1% TFA prior to micro C18 Zip Tipping directly onto the MALDI target using alpha cyano-4-hydroxy cinnamic acid as the matrix (5 mg/ml in 0.1% TFA:Acetonitrile 50:50).
For tryptic digests the instrument was set in Reflectron mode with a pulsed extraction setting of 2200. […] Calibration for fragments was done using the P14R fragmentation calibration for the Curved field Reflectron.

Setting [5] is: 1 uM for 90 minutes, then washed free of compound.

Read-outs that look alike come from different tables or passages of the source.

T2 sequence (P10721 26-976): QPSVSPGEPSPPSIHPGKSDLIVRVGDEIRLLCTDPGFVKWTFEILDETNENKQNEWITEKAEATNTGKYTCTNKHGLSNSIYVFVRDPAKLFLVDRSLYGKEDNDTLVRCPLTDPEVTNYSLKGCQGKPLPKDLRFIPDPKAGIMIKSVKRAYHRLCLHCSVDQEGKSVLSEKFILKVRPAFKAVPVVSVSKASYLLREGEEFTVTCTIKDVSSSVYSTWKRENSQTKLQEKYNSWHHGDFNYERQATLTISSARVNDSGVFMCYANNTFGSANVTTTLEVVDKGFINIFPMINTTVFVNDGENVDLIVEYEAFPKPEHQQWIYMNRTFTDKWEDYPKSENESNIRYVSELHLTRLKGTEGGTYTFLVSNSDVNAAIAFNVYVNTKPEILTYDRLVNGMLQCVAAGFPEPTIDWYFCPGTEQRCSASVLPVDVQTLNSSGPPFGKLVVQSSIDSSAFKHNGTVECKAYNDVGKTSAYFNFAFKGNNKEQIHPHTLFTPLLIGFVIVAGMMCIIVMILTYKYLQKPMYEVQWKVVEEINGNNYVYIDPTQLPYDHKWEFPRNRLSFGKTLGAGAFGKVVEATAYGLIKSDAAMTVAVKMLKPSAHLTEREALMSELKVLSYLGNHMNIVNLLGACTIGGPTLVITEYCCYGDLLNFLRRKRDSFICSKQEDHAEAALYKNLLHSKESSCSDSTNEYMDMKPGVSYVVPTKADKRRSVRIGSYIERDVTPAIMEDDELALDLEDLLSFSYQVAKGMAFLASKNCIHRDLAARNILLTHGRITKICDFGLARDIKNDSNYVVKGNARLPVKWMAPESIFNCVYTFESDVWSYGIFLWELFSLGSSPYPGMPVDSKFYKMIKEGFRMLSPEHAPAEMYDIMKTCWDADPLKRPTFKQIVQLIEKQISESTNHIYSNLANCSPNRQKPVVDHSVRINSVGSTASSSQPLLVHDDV
T3 sequence (P10721 26-976 K642E): as the sequence (P10721 26-976) above, with K617E counted along it
Sequence of CSF1R (FMS) (P07333 20-972): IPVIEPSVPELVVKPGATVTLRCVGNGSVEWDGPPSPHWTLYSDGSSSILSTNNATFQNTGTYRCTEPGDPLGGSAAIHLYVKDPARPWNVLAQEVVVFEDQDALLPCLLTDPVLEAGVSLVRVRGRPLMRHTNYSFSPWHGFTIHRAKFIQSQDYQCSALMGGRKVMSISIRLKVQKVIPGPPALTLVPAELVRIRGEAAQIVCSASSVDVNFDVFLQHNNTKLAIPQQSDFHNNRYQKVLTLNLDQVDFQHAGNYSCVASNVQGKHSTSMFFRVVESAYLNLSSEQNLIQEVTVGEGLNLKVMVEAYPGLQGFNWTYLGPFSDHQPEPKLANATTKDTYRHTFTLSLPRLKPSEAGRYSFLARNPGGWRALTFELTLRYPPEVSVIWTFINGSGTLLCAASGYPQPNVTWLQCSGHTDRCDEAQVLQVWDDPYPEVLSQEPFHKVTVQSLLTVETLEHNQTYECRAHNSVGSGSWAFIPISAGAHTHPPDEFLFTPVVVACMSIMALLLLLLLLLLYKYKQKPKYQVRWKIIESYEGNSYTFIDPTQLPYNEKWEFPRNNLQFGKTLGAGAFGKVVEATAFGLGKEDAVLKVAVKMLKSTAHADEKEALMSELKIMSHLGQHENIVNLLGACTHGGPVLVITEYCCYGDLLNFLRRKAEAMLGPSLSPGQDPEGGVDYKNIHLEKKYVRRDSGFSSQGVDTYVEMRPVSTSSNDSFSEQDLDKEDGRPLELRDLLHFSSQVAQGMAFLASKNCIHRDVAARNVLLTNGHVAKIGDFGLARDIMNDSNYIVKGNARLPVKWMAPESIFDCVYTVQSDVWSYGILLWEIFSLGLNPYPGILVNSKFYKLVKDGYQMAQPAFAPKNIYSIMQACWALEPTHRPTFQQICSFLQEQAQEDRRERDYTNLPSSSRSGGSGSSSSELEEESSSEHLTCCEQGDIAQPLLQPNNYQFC
Sequence of HCV NS3/4A 1b protease WT (P26662 1658-1711): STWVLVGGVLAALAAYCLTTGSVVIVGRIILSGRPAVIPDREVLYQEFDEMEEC
Sequence of HCV NS3/4A 1b protease WT (P26662 1027-1208): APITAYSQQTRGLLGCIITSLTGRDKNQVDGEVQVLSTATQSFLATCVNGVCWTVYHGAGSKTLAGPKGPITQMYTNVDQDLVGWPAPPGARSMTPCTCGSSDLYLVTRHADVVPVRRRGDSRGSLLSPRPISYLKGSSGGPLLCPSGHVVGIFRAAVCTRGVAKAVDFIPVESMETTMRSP
Sequence of HCV NS3/4A 1b protease D168A (P26662 1027-1208 D1194A): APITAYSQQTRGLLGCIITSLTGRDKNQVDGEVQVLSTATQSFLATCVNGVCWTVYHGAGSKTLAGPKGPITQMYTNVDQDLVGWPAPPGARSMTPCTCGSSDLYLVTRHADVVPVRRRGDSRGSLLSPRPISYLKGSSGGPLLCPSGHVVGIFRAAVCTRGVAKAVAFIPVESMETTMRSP
Sequence of HCV NS3/4A 1b protease D168A (P26662 1658-1711 partner limits assumed): as the sequence (P26662 1658-1711) above
Sequence of CSF1R (P07333 20-972): as the sequence (P07333 20-972) above
T1 sequence (Q06187 whole entry): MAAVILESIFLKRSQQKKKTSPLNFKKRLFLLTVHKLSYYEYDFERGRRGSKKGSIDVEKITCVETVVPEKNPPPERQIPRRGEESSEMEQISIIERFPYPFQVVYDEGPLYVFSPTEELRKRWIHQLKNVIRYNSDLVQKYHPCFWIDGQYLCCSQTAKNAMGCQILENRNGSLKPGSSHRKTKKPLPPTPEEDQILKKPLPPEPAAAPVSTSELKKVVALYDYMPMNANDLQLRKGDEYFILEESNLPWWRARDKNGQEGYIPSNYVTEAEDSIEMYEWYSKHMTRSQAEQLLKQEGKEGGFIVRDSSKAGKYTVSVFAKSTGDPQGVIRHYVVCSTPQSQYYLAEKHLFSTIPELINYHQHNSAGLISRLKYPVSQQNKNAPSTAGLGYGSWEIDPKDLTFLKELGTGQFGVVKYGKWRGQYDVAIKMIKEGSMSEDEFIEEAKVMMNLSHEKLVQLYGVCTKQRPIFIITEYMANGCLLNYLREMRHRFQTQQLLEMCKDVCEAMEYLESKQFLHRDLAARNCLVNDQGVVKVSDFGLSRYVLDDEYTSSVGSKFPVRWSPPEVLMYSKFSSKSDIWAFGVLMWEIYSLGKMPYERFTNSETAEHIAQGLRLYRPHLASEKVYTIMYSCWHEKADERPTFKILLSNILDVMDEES
Sequence of HCV NS3/4A 1b protease (P26662 1027-1208): as the sequence (P26662 1027-1208) above
Sequence of HCV NS3/4A 1b protease (P26662 1658-1711): as the sequence (P26662 1658-1711) above
Description for HCV RNA replicon: The compounds were assayed to evaluate the antiviral activity and cytotoxicity of compounds using replicon-derived luciferase activity. This assay used the cell line ET (luc-ubi-neo/ET), which is a human Huh7 hepatoma cell line that contains an HCV RNA replicon with a stable luciferase (Luc) reporter and three cell culture-adaptive mutations.
The ET cell line was grown in Dulbecco's modified essential media (DMEM), 10% fetal bovine serum (FBS), 1% penicillin-streptomycin (pen-strep), 1% glutamine, 1% non essential amino acid, 400 μg/mL G418 in a 5% CO2 incubator at 37° C. All cell culture reagents were obtained from Invitrogen(Carlsbad). Cells were trypsinized (1% trypsin:EDTA) and plated out at 5×10^3 cells/well in white 96-well assay plates (Costar) dedicated to cell number (cytotoxicity) or antiviral activity assessments. Compounds were added at six 3-fold concentrations each and the assay was run in DMEM, 5% FBS, 1% pen-strep, 1% glutamine, 1% non essential amino acid. Human interferon alpha-2b (PBL Biolabs, New Brunswick, N.J.) was included in each run as a positive control compound. Cells were processed 72 hr post compound addition when the cells are still subconfluent. Antiviral activity was measured by analyzing replicon-derived luciferase activity using the Steady-Glo Luciferase Assay System (Promega, Madison, Wis.) according to manufacturer's instruction. The number of cells in each well was determined by Cell Titer Blue Assay (Promega).

In general, IC50 refers to the midpoint of a concentration-inhibition curve. With `CCC(=O)Nc1cccc(Nc2cc(Nc3ccc(Oc4ccccc4)cc3)ncn2)c1` [Compound 9], at Btk, the IC50 is 8.6 µM.

What is called EC50 is the concentration needed to bring the measured effect to its halfway point. As for `C=CC(=O)NCC(=O)N1C[C@H](Oc2cc(-c3ccccc3)nc3cc(OC)ccc23)C[C@H]1C(=O)N[C@]1(C(=O)NS(=O)(=O)c2ccccc2)C[C@H]1C=C` [Compound 12, (2S,4R)-1-(2-acrylamidoacetyl)-4-(7-methoxy-2-phenylquinolin-4-yloxy)-N-((1R,2S)-1-(phenylsulfonylcarbamoyl)-2-vinylcyclopropyl)pyrrolidine-2-carboxamide], the IC50 in test [1] was found to be 17 nM; in test [2], 0.3 nM. The EC50 in the test on HCV RNA replicon was determined as 0.204 µM.

`C=CC1C[C@]1(NC(=O)[C@@H]1C[C@@H](Oc2cc(-c3ccccc3)nc3cc(OC)ccc23)CN1C(=O)C(NC(=O)OC(C)(C)C)C(C)C)C(=O)NS(=O)(=O)c1ccccc1` (stereo partly shown) [Compound V-1, reference compound] displayed an IC50 against HCV NS3/4A 1b protease of 0.0004 µM.

On to `C=C[C@@H]1C[C@]1(NC(=O)[C@@H]1C[C@@H](Oc2cc(-c3ccccc3)nc3cc(OC)ccc23)CN1C(=O)CNC(=O)CC)C(=O)NS(=O)(=O)c1ccccc1` [Compound 11, reference compound], for which the IC50 is more than 3000 nM in test [1] and 165 nM in [2]. Further, the EC50 in the test with HCV RNA replicon was more than 3 µM.

One may read the inhibition as the change of the read-out against control, counted positive when it falls. With `C=CC(=O)Nc1ccc(C(=O)Nc2ccc(C)c(Nc3nccc(-c4cccnc4)n3)c2)cc1` [Compound 1, 4-acrylamido-N-(4-methyl-3-(4-(pyridin-3-yl)pyrimidin-2-ylamino)phenyl)benzamide], at CSF1R (FMS) (10 μM compound), the inhibition at 10 µM was 72%. For the same compound, the inhibition at 1 µM on c-KIT [3] (read-out: % Inhibition of c-KIT) turned out to be 82%.

For `C=CC(=O)Nc1ccc(C(=O)Nc2ccc(C)c(Nc3nccc(-c4cccnc4)n3)c2)cc1C(F)(F)F` [Compound 2, 4-Acrylamido-N-(4-methyl-3-(4-pyridin-3-yl)pyrimidin-2-ylamino)phenyl-3-(trifluoromethyl)benzamide], the inhibition at 10 µM at CSF1R (FMS) is 89%. At CSF1R, the “covalent modification of CSF1R (modified peptide)” value was “NCIHR”.

As to `C=CC(=O)Nc1ccc(NC(=O)Nc2ccc(Oc3ccnc(C(=O)NC)c3)cc2)cc1C(F)(F)F` [Compound 7, 4-(4-(3-(4-Acrylamido-3-(trifluoromethyl)phenyl)ureido)phenoxy)-N-methylpicolinamide], the “persistence of inhibition after washout” value at cKIT in GIST882 cells (setting [5]) is recorded as “at least 8 hours”. Also, on cKIT in GIST882 cells, the cKIT autophosphorylation entry is listed as “inhibited” and the “downstream signaling of ERK” value is reported as “inhibited”. Moreover, the IC50 at c-KIT [3] (inhibition of cKIT phosphorylation) amounted to 0.031 µM. Besides, on c-KIT [4], the “covalent modification of c-KIT (site or peptide)” value was “NCIHR”.

As to `Cc1ccc(C(=O)Nc2ccc(NC(=O)CCl)c(C(F)(F)F)c2)cc1Nc1nccc(-c2cccnc2)n1` [Compound 3], the “covalent modification of c-KIT (site or peptide)” value at c-KIT [4] is recorded as “Cys788 (major) and: Cys808 (minor)”.

Turning to `CNC(=O)c1cc(Oc2ccc(NC(=O)Nc3ccc(Cl)c(C(F)(F)F)c3)cc2)ccn1` [Sorafenib, sorafenib, reference compound], the “inhibitory activity of ckit and downstream signaling after washout” value on cKIT in GIST882 cells (setting [5]) is “overcome”. Besides, at cKIT in GIST882 cells, the cKIT autophosphorylation result is on record as “inhibited” and the “downstream signaling of ERK” value is on record as “inhibited”.

As to `C=CC(=O)NC[C@H](NC(=O)OC(C)(C)C)C(=O)N1C[C@H](Oc2cc(-c3ccccc3)nc3cc(OC)ccc23)C[C@H]1C(=O)N[C@]1(C(=O)NS(=O)(=O)c2ccccc2)C[C@H]1C=C` [Compound 6, N-[(1,1-dimethylethoxy)carbonyl]-3-[(2-propenoyl)amino]-L-alanyl-(4R)-4-[(7-methoxy-2-phenyl-4-quinolinyl)oxy]-L-prolyl-1-amino-2-ethenyl-N-(phenylsulfonyl)-(1R,2S)-cyclopropanecarboxamide], in the test on HCV RNA replicon, the EC50 was found to be 0.174 µM.
